Source: patent US10160716B2, “Compounds and methods of use thereof for treating tumors” (Georgetown University, priority 2012, dated 2018)
Each block holds one compound with its values, some of them ahead of it.

Experiments:
[1] = tested on: MCF-7 cells; experiment: E2 stimulated proliferation of MCF-7 cells (cell counts); format: cell-based, human
Source text: Briefly, cells were inoculated into 12-well dishes at 1×10^4 cells per well on day 0 in 5% charcoal-stripped serum (CSS). […] Triplicate wells were counted on days 1-4 to determine the effect of 103(f) on cell growth.

[2] = biological target: T1, ER-α (Homo sapiens, UniProt P03372); experiment: ERE-TK-Luc reporter assay of E2-stimulated ER-α transcriptional activity in MCF-7 cells; format: cell-based; details: for IC80: MCF7, read-out: IC80 (concentration required for inhibition of ER-α activity by 80%); for IC50: read-out: IC50 (concentration required for inhibition of ER-α activity by 50%)
T1 construct: endogenous in cells; host or cells: MCF-7
T1 sequence (P03372 1-595): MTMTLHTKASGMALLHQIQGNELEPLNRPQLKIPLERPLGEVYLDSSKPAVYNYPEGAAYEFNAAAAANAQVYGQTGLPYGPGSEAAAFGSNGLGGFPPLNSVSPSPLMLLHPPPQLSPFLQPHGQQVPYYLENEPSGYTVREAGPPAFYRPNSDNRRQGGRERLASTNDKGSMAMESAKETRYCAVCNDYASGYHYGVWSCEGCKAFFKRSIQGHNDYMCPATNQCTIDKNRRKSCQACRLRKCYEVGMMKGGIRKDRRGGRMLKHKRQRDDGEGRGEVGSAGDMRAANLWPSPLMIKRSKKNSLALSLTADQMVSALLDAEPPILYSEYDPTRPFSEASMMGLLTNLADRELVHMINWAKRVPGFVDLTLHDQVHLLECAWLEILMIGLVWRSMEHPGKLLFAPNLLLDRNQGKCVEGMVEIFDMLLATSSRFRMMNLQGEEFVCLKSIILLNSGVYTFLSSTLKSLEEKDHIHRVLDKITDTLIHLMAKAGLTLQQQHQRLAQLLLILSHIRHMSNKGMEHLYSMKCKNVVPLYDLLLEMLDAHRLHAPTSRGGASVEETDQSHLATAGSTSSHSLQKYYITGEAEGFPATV
Method: Briefly, MCF7 or T47D cells are transfected overnight with an ERE-TK-Luc reporter construct. An ERE-TK-Luc construct contains an estrogen response element (ERE) upstream of a minimal thymidine kinase (TK) promoter that drives the expression of the luciferase (Luc) reporter gene. After transfection, the cells are subsequently washed and allowed to recover for several hours. […] The cells are subsequently harvested for luciferase reporter assays.
Three compounds were tested for their ability to inhibit ER-α activity. […] Initially, each compound was tested at doses of 1 μM and 50 μM.

[3] = tested on: LCC2; details: LCC2, ER-α +; cited from earlier work
[4] = tested on: LCC1; details: LCC1, ER-α +; cited from earlier work
[5] = tested on: MCF-7; details: MCF-7, ER-α +; cited from earlier work
[6] = tested on: LCC9; details: LCC9, ER-α +; cited from earlier work

IC80 [2]: 50 µM | IC50 [2]: 4 µM
Structure (SMILES): O=C(O)CCCc1ccc2ccccc2c1 [Compound 201]

IC80 [2]: 40 µM | IC50 [2]: 12 µM
Structure (SMILES): Nc1nc(Cc2ccccc2)nc(Cc2ccccc2)c1-c1ccccc1 [Compound 301]

The next lines start with the compound.

Structure (SMILES): CC(C)=CC1C(COC(=O)c2cc3c(cc2Cl)OCO3)C1(C)C (stereo not drawn) [Compound 103(f)]
effect on E2-stimulated cell growth ([1]; 5 μM or 20 μM in the presence of 10 nM E2, P<0.01): blocked most of the E2-stimulated cell growth | effect on cell growth, compound alone ([1]; 5 μM or 20 μM, without E2, compared with DMSO, days 1-4): little or no effect on cell growth | IC80 [2]: 5 µM | IC50 [2]: 3 µM

Structure (SMILES): C[C@]12CC[C@@H]3c4ccc(O)cc4CC[C@H]3[C@@H]1CC[C@@H]2O [Compound E2, 17β-estradiol]
cell density by day 4 ([1]; DMSO+E2 (10 nM), seeded 1×10^4 cells per well, 2% CSS): 9×10^4 cells per well | Response to Estradiol (E2) [3]: E2-dependent growth | Response to Estradiol (E2) [4]: Partially E2-depenedent growth | Response to Estradiol (E2) [5]: E2-responsive; E2-dependent growth | Response to Estradiol (E2) [6]: E2-insensitive growth; some E2-responsive

Structure (SMILES): C[C@]12CC[C@@H]3c4ccc(O)cc4C[C@@H](CCCCCCCCC[S+]([O-])CCCC(F)(F)C(F)(F)F)[C@H]3[C@@H]1CC[C@@H]2O (stereo partly drawn) [Fulvestrant]
Response to Fulvestrant [3]: Sensitive | Response to Fulvestrant [4]: Sensitive | Response to Fulvestrant [5]: Sensitive | Response to Fulvestrant [6]: Resistant

Structure (SMILES): CC/C(=C(\c1ccccc1)c1ccc(OCCN(C)C)cc1)c1ccccc1 [Tamoxifen]
Response to Tamoxifen [3]: Resistant | Response to Tamoxifen [4]: Sensitive | Response to Tamoxifen [5]: Sensitive | Response to Tamoxifen [6]: Resistant
